Measurements from patent publication US20220119431A1, “SALT OF EGFR INHIBITOR, CRYSTAL FORM, AND PREPARATION METHOD THEREFOR” (priority 2019, published 2022).

Legend:
[1] = system: lung cancer PC-9 cells; experiment: In vivo efficacy in mice with subcutaneous lung cancer PC-9 xenograft; parameters: species or system mouse; details: 50 mg/kg (0-9 days), 25 mg/kg (10-21 days) oral once a day
Method: 1. Cell culture: lung cancer PC-9 cells were cultured in an RPMI 1640 medium containing 10% fetal bovine serum, 100 U/mL penicillin and 100 μg/mL streptomycin through in vitro monolayer culture in an incubator at 37° C./5% CO2. The cells were digested with trypsin-EDTA twice a week for passaging as per conventional practice. At a cell saturation of 80%-90% and a required number, the cells were collected and counted. The cell density was 5×10^6 cells. 2. Cell inoculation: 0.2 mL (containing 5×10^6) of a suspension of PC-9 cells (PBS:Matrigel=1:1) was subcutaneously inoculated in the right back of each mouse, and 64 mice were inoculated in total. On day 7 after inoculation, when mean tumor volume was measured to be 169 mm^3, grouping administration was performed using a randomized stratified grouping method based on tumor volume and mice body weight. PBS is phosphate buffered saline, and Matrigel is matrigel. 3. Administration: the dosage was 50 mg/kg for 0-9 days and 25 mg/kg for 10-21 days; the drug was orally administrated once a day for 3 weeks.
Tumor diameters were measured twice weekly using a vernier caliper. The tumor volume was calculated using the following formula: V=0.5a×b^2, where a and b represent the long diameter and short diameter of the tumor respectively.
The efficacy of compounds against tumor was evaluated by TGI (%).
Relative tumor volume (RTV) was calculated based on the results of tumor measurement. The formula is RTV=Vt/V0, where V0 represents the tumor volume measured at the time point of grouping and administration (i.e., Do), and Vt represents the tumor volume at a certain measurement for the corresponding mouse, the data of TRTV and CRTV should be measured on the same day.
TGI (%) reflects the tumor growth inhibition rate. TGI (%)=[(1−(average tumor volume at the end of administration in a treatment group−average tumor volume at the start of administration of the treatment group))/(average tumor volume at the end of treatment of the solvent control group−average tumor volume at the start of treatment of the solvent control group)]×100%.
Tumor weights will be measured at the end of the experiment and the TGI (%) was calculated.

[2] = system: Ba/F3 (Δ19 del/T790M/C797S); experiment: In vivo efficacy in BALB/c nude mice with subcutaneous Ba/F3 (Δ19 del/T790M/C797S) xenograft (CDX); details: for tumor volume inhibition value (TGI): 13 consecutive days
Method: In vivo drug efficacy experiment was performed on xenograft (CDX) BALB/c nude mice subcutaneously implanted with Ba/F3 (Δ19 del/T790M/C797S) source. BALB/c nude mice (female, 6-8 weeks, weighing about 18-22 g) were bred in SPF-rated environments, and each cage was ventilated individually (5 mice per cage). All animals were free to obtain a standard certified commercial laboratory diet. 48 mice in total were purchased from Beijing Vital River Laboratory Animal Technology Co., Ltd for the study. Each mouse was implanted with cells subcutaneously in the right flank for tumor growth. The experiment was started when the mean tumor volume reached about 80-120 mm^3. The test compound was administered orally daily with the compound of formula (I) (5 mg/kg, 15 mg/kg, 45 mg/kg, respectively) administered for 13 consecutive days, and the data are shown in Table 5. Tumor volume was measured twice weekly with a two-dimensional caliper, and the volume was measured in mm^3 and calculated according to the following formula: V=0.5a×b^2, where a and b are the long and short diameters, respectively, of the tumor. Anti-tumor efficacy was determined by dividing the mean tumor increase volume of compound-treated animals by the mean tumor increase volume of untreated animals.

[3] = Plasma, tumor and lung exposure in the efficacy-study mice after last administration; assay type: in vivo, BALB/c nude mice; details: 15.0 mg/kg/day oral
Method: On day 14 after administration to the groups for the efficacy experiment, before the last administration and 2 h after the last administration, the plasma of the mice was collected by blood collection from the submandibular vein, and the plasma of the mice was collected at 1 h, 4 h, 8 h, and 24 h after the administration. About 100 μL of blood was collected each time, placed in an anticoagulation tube, and centrifuged at 8000 rpm for 7 min to collect blood plasma, and the blood plasma was preserved at −80° C. Tissues of mouse lung and tumor were collected at the same time 2 h after the administration and stored at −80° C.

[4] = Stability test, influencing factors (illumination, high temperature, high humidity); assay type: physicochemical
Method: Illumination test chamber, model: SHH-100GD-2, conditions: 5000±500 lux (visible light) and 90 mw/cm^2 (ultraviolet).
Electric heating blast drying oven, model: GZX-9140MBE condition: 60° C.
Constant temperature and humidity chamber, model: SHH-250SD, condition: 25° C./75% RH.
(§1) Influencing factor experimental conditions (high temperature of 60° C., high humidity of 75% RH, illumination): an appropriate amount of crystalline form A of the compound of formula (IIA) was placed in a dry and clean open weighing bottle, then the bottle was placed into a dryer under different conditions, and then placed into a corresponding thermostat for observation. The bottle was taken out after being placed for 5 days, 10 days and 30 days, and related substances and contents thereof were measured. Accelerated and long-term experimental conditions (40° C./75% RH, 25° C./60% RH): an appropriate amount of crystalline form A of the compound of formula (IIA) was filled into a double-layer LDPE bags, each layer of LDPE bag was sealed by a binding buckle, then put into an aluminum foil bag for heat sealing, and then put into a corresponding thermostat to observe acceleration and long-term stability.

[5] = Stability test, accelerated test 40° C./75% RH (Test Example 4); assay type: physicochemical; details: 40° C. ± 2° C., 75% RH ± 5% RH
Source text: The conditions and the method for the raw material stability test are mainly based on related requirements such as “Guidelines for the Stability Test of APIs and Preparations” (General Principles 9001 of the Four Parts of the Chinese Pharmacopoeia, 2015 Edition) and technical guidelines for stability study on chemical drugs (raw materials and preparations) issued by the National Medical Products Administration in February, 2015 (revised), and are specifically shown in Table 14.

[6] = Stability test, accelerated conditions 40° C./75% RH (Test Example 3); assay type: physicochemical; details: 40° C. ± 2° C./75% RH ± 5% RH
Method: (§2) Constant temperature and humidity chamber, model: LDS-800Y, condition: 40° C./75% RH and 25° C./60% RH.
as §1

[7] = Stability test, long-term conditions 25° C./60% RH (Test Example 3); assay type: physicochemical; details: 25° C. ± 2° C./60% RH ± 5% RH
Method: as §2, §1

[8] = system: L858R/T790M/C797S mutation; details: in combination with an EGFR monoclonal antibody drug such as Cetuximab; cited from earlier work
[9] = BALB/c nude, mouse, plasma, day 14
[10] = High humidity (25° C./75% RH), Day 5
[11] = High temperature (60° C.), Day 5
[12] = High temperature (60° C.), Day 10
[13] = High temperature (60° C.), Day 30
[14] = Light stability experiment, Day 5
[15] = Light stability experiment, Day 10

`COc1cc(N2CCC(N3CCN(C)CC3)CC2)c(C)cc1Nc1ncc(Br)c(Nc2ccc3nccnc3c2P(C)(C)=O)n1` [Compound of formula (I)] showed a Tumor volume ([1]; Day 0) of 185 mm^3, a Tumor volume ([1]; Day 2) of 198 mm^3 and a Tumor volume ([1]; Day 6) of 92 mm^3. It also gave a Tumor volume ([1]; Day 9) of 75 mm^3, a Tumor volume ([1]; Day 13) of 40 mm^3 and a Tumor volume ([1]; Day 16) of 45 mm^3. It also gave a Tumor volume ([1]; Day 20) of 76 mm^3, a Tumor volume ([1]; Day 23) of 111 mm^3 and a TGI ([1]; day 23) of 100%. It also gave a Tumor volume ([2]; 5 mg/kg/day oral, Day 0) of 84 mm^3, a Tumor volume ([2]; 5 mg/kg/day oral, Day 2) of 108 mm^3 and a Tumor volume ([2]; 5 mg/kg/day oral, Day 5) of 212 mm^3. For the same compound, the Tumor volume ([2]; 5 mg/kg/day oral, Day 8) was 395 mm^3, the Tumor volume ([2]; 5 mg/kg/day oral, Day 10) was 505 mm^3 and the Tumor volume ([2]; 5 mg/kg/day oral, Day 12) was 748 mm^3. The Tumor volume ([2]; 5 mg/kg/day oral, Day 13) was 881 mm^3, the “tumor volume inhibition value (TGI)” value ([2]; 15 mg/kg oral daily) was 74.9% and the Tumor volume ([2]; 15 mg/kg/day oral, Day 0) was 84 mm^3. It also gave a Tumor volume ([2]; 15 mg/kg/day oral, Day 2) of 76 mm^3, a Tumor volume ([2]; 15 mg/kg/day oral, Day 5) of 107 mm^3 and a Tumor volume ([2]; 15 mg/kg/day oral, Day 8) of 126 mm^3. The Tumor volume ([2]; 15 mg/kg/day oral, Day 10) was 176 mm^3, the Tumor volume ([2]; 15 mg/kg/day oral, Day 12) was 292 mm^3 and the Tumor volume ([2]; 15 mg/kg/day oral, Day 13) was 326 mm^3. For the same compound, the “tumor volume inhibition value (TGI)” value ([2]; 45 mg/kg oral daily) was 101.69%, the Tumor volume ([2]; 45 mg/kg/day oral, Day 0) was 84 mm^3 and the Tumor volume ([2]; 45 mg/kg/day oral, Day 2) was 56 mm^3. The Tumor volume ([2]; 45 mg/kg/day oral, Day 5) was 32 mm^3, the Tumor volume ([2]; 45 mg/kg/day oral, Day 8) was 35 mm^3 and the Tumor volume ([2]; 45 mg/kg/day oral, Day 10) was 42 mm^3. The Tumor volume ([2]; 45 mg/kg/day oral, Day 12) was 73 mm^3, the Tumor volume ([2]; 45 mg/kg/day oral, Day 13) was 68 mm^3 and the “Lung concentration, 2 h” value ([3]; 2 h after last administration) was 32533 nmol/kg. The “Tumor concentration, 2 h” value ([3]; 2 h after last administration) was 16667 nmol/kg, the concentration at 2 h ([3]; BALB/c nude, mouse, plasma, 2 h after last administration) was 3.55 µM and the AUC(0-t) [3, 9] was 57 µM·h. For the same compound, the half-life [3, 9] was 10 h.

Work on `COc1cc(N2CCC(N3CCN(C)CC3)CC2)c(C)cc1Nc1ncc(Br)c(Nc2ccc3nccnc3c2P(C)(C)=O)n1` yielded a Content [4, 10] of 99.6%, a Total impurities [4, 10] of 1.41% and a Content [4, 11] of 99.1%. For the same compound, the Total impurities [4, 11] was 1.59%, the Content [4, 12] was 101.6% and the Total impurities [4, 12] was 1.63%. The Content [4, 13] was 99.4%, the Total impurities [4, 13] was 1.71% and the Content ([4]; Initial value) was 97.3%. It also gave a Total impurities ([4]; Initial value) of 1.63%, a Content [4, 14] of 97.1% and a Total impurities [4, 14] of 1.99%. It also gave a Content [4, 15] of 95.1%, a Total impurities [4, 15] of 2.21% and a Sum of impurities ([5]; month 0) of 1.18%. It also gave a Water ([5]; month 0) of 3.0%, a Sum of impurities ([5]; month 1) of 1.10% and a Water ([5]; month 1) of 3.0%. The Sum of impurities ([5]; month 2) was 1.18%, the Water ([5]; month 2) was 3.5% and the Sum of impurities ([5]; month 3) was 1.30%. The Water ([5]; month 3) was 3.2%, the Sum of impurities ([5]; month 6) was 1.18% and the Water ([5]; month 6) was 2.8%. The Content ([6]; 0 day) was 97.3%, the Total impurities ([6]; 0 day) was 1.63% and the Content ([6]; 1 month) was 99.1%. The Total impurities ([6]; 1 month) was 1.71%, the Content ([6]; 2 months) was 98.1% and the Total impurities ([6]; 2 months) was 1.50%. The Content ([6]; 3 months) was 98.6%, the Total impurities ([6]; 3 months) was 1.56% and the Content ([6]; 6 months) was 97.9%. The Total impurities ([6]; 6 months) was 1.61%, the Content ([7]; 0 day) was 97.3% and the Total impurities ([7]; 0 day) was 1.63%. It also gave a Content ([7]; 3 months) of 99%, a Total impurities ([7]; 3 months) of 1.61% and a Content ([7]; 6 months) of 98.2%. For the same compound, the Total impurities ([7]; 6 months) was 1.73%, the Content ([7]; 9 months) was 99.4% and the Total impurities ([7]; 9 months) was 1.83%. It also gave a Content ([7]; 12 months) of 97.7% and a Total impurities ([7]; 12 months) of 1.69%.

In the case of `O=C(Nc1nccs1)C(c1cc(F)ccc1O)N1Cc2ccccc2C1=O` (stereo not shown) [EAI045], the tumor inhibitory effect [8] is listed as “good tumor inhibitory effect”.
